# Read-outs that look alike come from different tables or passages of the source.
# B1: T. terrestris GH61E polypeptide: GH61E polypeptide having cellulolytic enhancing activity (SEQ ID NO: 8), recombinantly produced in Aspergillus oryzae JaL250 (protein, listed as Thielavia terrestris)
# chain: MLANGAIVFLAAALGVSGHYTWPRVNDGADWQQVRKADNWQDNGYVGDVTSPQIRCFQATPSPAPSVLNTTAGSTVTYWANPDVYHPGPVQFYMARVPDGEDINSWNGDGAVWFKVYEDHPTFGAQLTWPSTGKSSFAVPIPPCIKSGYYLLRAEQIGLHVAQSVGGAQFYISCAQLSVTGGGSTEPPNKVAFPGAYSATDPGILINIYYPVPTSYQNPGPAVFSC
# What was measured:
# [1] = target: T1, T. aurantiacus GH61A polypeptide (Thermoascus aurantiacus, UniProt G3XAP7, N13Y); format: biochemical; conditions: for hydrolysis of AVICEL in the presence of both T. aurantiacus GH61A polypeptide and dioxy compound relative to inhibition by the dioxy compound / dioxy compound effect(no GH61): dioxy compound 1 mM; for hydrolysis of AVICEL in the presence of both T. aurantiacus GH61A polypeptide and dioxy compound relative to inhibition by the dioxy compound: GH61A polypeptide 2 mg per g cellulose, cellulose 29.5 mg per ml; for dioxy compound effect(no GH61): AVICEL 29.5 mg cellulose per ml; for dioxy compound effect(no GH61) (Equation 3), ratio of percent conversion with/without dioxy compound: day 1 to day 8
# T1 sequence (G3XAP7 whole entry N13Y): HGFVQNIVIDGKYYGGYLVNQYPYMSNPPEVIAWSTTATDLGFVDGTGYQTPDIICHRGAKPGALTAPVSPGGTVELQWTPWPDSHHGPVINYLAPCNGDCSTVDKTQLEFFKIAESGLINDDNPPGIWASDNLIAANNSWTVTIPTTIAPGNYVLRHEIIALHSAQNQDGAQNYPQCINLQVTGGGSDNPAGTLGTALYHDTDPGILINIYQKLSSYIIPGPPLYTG
# Experimental: The cellulase preparation is designated herein as “Trichoderma reesei cellulase composition” unless specified otherwise.
# Later experiments were mixed thoroughly prior to incubation in an IsoTemp incubator (Fisher Scientific, Hampton, N.H., USA) and prior to sampling for analysis, but were not continuously mixed.
# Data were processed using MICROSOFT EXCEL™ software.
# [2] = target: T1, T. aurantiacus GH61A polypeptide; assay: Microcrystalline cellulose conversion assay II (Examples 10, 11), T. reesei CEL7A cellobiohydrolase I + A. oryzae CEL3A beta-glucosidase; format: biochemical; conditions: dioxy compound 0.1% w/w alone, no enzymes; 72 hours, 50° C.
# Experimental: A 5% microcrystalline cellulose slurry was prepared by addition of 2.5 g of AVICEL® PH101 to a graduated 50 ml screw-cap conical tube followed by approximately 40 ml of deionized water. Each conical tube was then mixed thoroughly by shaking/vortexing, and adjusted to 50 ml total with deionized water and mixed again. For samples containing dioxy compounds, a similar slurry was prepared by the addition of 100 mg of solid dioxy compound and 2.5 g of AVICEL® PH101 to a graduated 50 ml screw-cap conical tube followed by approximately 40 ml of deionized water. Each conical tube was then mixed thoroughly by shaking/vortexing, and adjusted to 50 ml total with deionized water and mixed again.
# The dioxy compounds assayed include caffeic acid, dichlorophenolindophenol (DCPIP), ethyl gallate, gallic acid, 3,4-dihydroxybenzoic acid, pyrocatechol, pyrogallol, sinapinic acid (3,5 dimethoxy-4-hydroxy cinnamic acid), and tannic acid.
# In all cases, the contents of the tube (5% microcrystalline cellulose slurry with or without 0.2% dioxy compound) were then quickly transferred to a 100 ml beaker and stirred rapidly with a magnetic stirrer. Five hundred μl aliquots of the 5% AVICEL® slurry were pipetted into wells of a 2.0 ml 96-deepwell plate (Axygen, Union City, Calif.) using a 1000 μl micropipette with a wide aperture tip (end of tip cut off about 2 mm from the base). One hundred μl of deionized water and 300 μl of 3.33 mM MnSO4-500 mM sodium acetate pH 5 were then added to each well. Enzyme mixtures were prepared and then added simultaneously to all wells in a volume of 100 μl, for a total of 1 ml in each reaction. […] All experiments reported were performed in triplicate.
# Primary analysis of the hydrolysis reactions was performed using an AGILENT® 1100 HPLC with CHEMSTATION® software equipped with an AMINEX™ HPX-87H column. After approximately 4 days, the deep-well plate was removed from the incubator and chilled overnight to 4° C. The plate was then mixed well by inversion and briefly centrifuged at 52×g in a SORVALL® RT7 centrifuge for 10 seconds. Samples were then mixed by pipetting, and 200 μl from each well were transferred to a MULTISCREEN® HV centrifuge filter plate assembly. The centrifuge filter plate assembly was centrifuged at 2000 rpm in a SORVALL® RT7 centrifuge for 20 minutes. […] Sugars were detected using a refractive index detector with quantification by integration compared to purified sugar standards.
# All HPLC data processing was performed using MICROSOFT EXCEL™ software. […] In this assay only glucose was measured since beta-glucosidase was at high levels in all samples but the controls. The degree of cellulose conversion was calculated using Equation 1. Triplicate data points were averaged and standard deviation was calculated.
# The microcrystalline cellulose hydrolysis assay was performed as described in Example 10.
# Data were collected and analyzed, as described in Example 10, after 72 hours of incubation at 50° C.
# [3] = test system: T. terrestris GH61E polypeptide; assay: Microcrystalline cellulose conversion assay I (Examples 8, 9) with T. terrestris GH61E polypeptide; format: biochemical, Thielavia terrestris; conditions: 96 hours
# Experimental: (§1) A 5% microcrystalline cellulose slurry was prepared by addition of 2.5 g of AVICEL®PH101 (Sigma-Aldrich, St. Louis, Mo., USA) to a graduated 50 ml screw-cap conical tube followed by 15 ml of 1 M sodium acetate pH 5 and 1 ml of 100 mM MnSO4 and approximately 20 ml of deionizer water. Each conical tube was then mixed thoroughly by shaking/vortexing, and adjusted to 50 ml total with deionized water and mixed again. Contents of the tube were then quickly transferred to a 100 ml beaker and stirred rapidly with a magnetic stirrer. Five hundred μl aliquots of the 5% AVICEL® slurry were pipetted into wells of a 2.0 ml 96-deepwell plate (Axygen, Union City, Calif., USA) using a 1000 μl micropipette with a wide aperture tip (end of tip cut off about 2 mm from the base). Three hundred μl of either deionized water or a 1% dioxy compound solution (dissolved in deionized water) was added to each well.
# (§2) The dioxy compounds assayed include caffeic acid (Sigma-Aldrich, St. Louis, Mo., USA), dichlorophenolindophenol (DCPIP; Sigma-Aldrich, St. Louis, Mo., USA), ethyl gallate (Sigma-Aldrich, St. Louis, Mo., USA), gallic acid (Sigma-Aldrich, St. Louis, Mo., USA), 3,4-dihydroxybenzoic acid (Sigma-Aldrich, St. Louis, Mo., USA), pyrocatechol (Sigma-Aldrich, St. Louis, Mo., USA), pyrogallol (Sigma-Aldrich, St. Louis, Mo., USA), sinapinic acid (3,5 dimethoxy-4-hydroxy cinnamic acid; Apin Chemicals LTD, Abingdon, UK), and tannic acid (Sigma-Aldrich, St. Louis, Mo., USA).
# (§3) Enzyme mixtures were prepared and then added simultaneously to all wells in a volume of 200 μl, for a total of 1 ml in each reaction. […] All experiments reported were performed in triplicate.
# (§4) After approximately 4 days, the deep-well plate was removed from the incubator and chilled overnight to 4° C. The plate was then mixed well by inversion and briefly centrifuged at 52×g in a SORVALL® RT7 centrifuge (Thermo Fisher Scientific, Waltham, Mass., USA) for 10 seconds. Samples were then mixed by pipetting, and 200 μl from each well were transferred to a MULTISCREEN® HV centrifuge filter plate assembly (Millipore, Bedford, Mass., USA). The centrifuge filter plate assembly was centrifuged at 2000 rpm in a SORVALL® RT7 centrifuge for 20 minutes. […] Sugars were detected using a refractive index detector (Agilent Technologies, Inc., Santa Clara, Calif., USA) with quantification by integration compared to purified sugar standards.
# (§5) In this assay only glucose was measured since beta-glucosidase was at high levels in all samples but the controls.
# (§6) A limit digest was performed to determine the total concentration accessible glucose equivalents using 100 mg of T. reesei cellulase (CELLIC™ CTec, Novozymes A/S, Bagsvaerd, Denmark) per gram cellulose, Triplicate data points were averaged and standard deviation was calculated.
# [4] = test system: T. aurantiacus CEL5A endoglucanase II and P. brasilianum CEL3A beta-glucosidase; assay: Microcrystalline cellulose conversion assay I (Examples 8, 9) without GH61 polypeptide; format: biochemical, Thermoascus aurantiacus; Penicillium brasilianum; conditions: dioxy compound 0.3% w/w + endoglucanase II + beta-glucosidase (5 mg/g each), no GH61; 96 hours, at either 50° C. or 60° C.
# Experimental: as §1, §2, §3, §4, §5, §6
# [5] = AVICEL 14 mg cellulose per ml, dioxy compound 5 mM, T. aurantiacus GH61A polypeptide 0.4 mg per g cellulose, 1, 3, and 7 days
# [6] = AVICEL, T. reesei cellulase composition, dioxy compound 5 mM, T. aurantiacus GH61A polypeptide present, day 1
# [7] = AVICEL, T. reesei cellulase composition, dioxy compound 5 mM, T. aurantiacus GH61A polypeptide present, day 5
# [8] = AVICEL, T. reesei cellulase composition, dioxy compound 5 mM, T. aurantiacus GH61A polypeptide present, day 8
# [9] = AVICEL, T. reesei cellulase composition, dioxy compound 5 mM
# [10] = AVICEL, T. reesei cellulase composition, dioxy compound 5 mM, day 5 (Example 24)
# [11] = dioxy compound 0.3% w/w + T. terrestris GH61E polypeptide (10 mg/g) + endoglucanase II + beta-glucosidase (5 mg/g each), 50° C.
# [12] = dioxy compound 0.3% w/w + T. terrestris GH61E polypeptide (10 mg/g) + endoglucanase II + beta-glucosidase (5 mg/g each), 60° C.
molecule,measurement,setting,value
"OCCCO [1,3-propanediol]",dioxy compound effect(+GH61) (Equation 4),[1]; [5],greater than 1
same,GH61 effect (Equation 5),"[1]; AVICEL 14 mg cellulose per ml, dioxy compound 5 mM, T. aurantiacus GH61A polypeptide 0.4 mg per g cellulose, 1, 3, and 7 days, increasing as hydrolysis progressed",greater than 1
same,dioxy compound effect(no GH61) (Equation 3),"[1]; AVICEL 14 mg cellulose per ml, dioxy compound 5 mM, 1, 3, and 7 days, especially early stages",greater than 1
"CC(O)CC(C)O (centres unmarked) [2,4-pentanediol]",dioxy compound effect(+GH61) (Equation 4),[1]; [5],greater than 1
same,GH61 effect (Equation 5),"[1]; AVICEL 14 mg cellulose per ml, dioxy compound 5 mM, T. aurantiacus GH61A polypeptide 0.4 mg per g cellulose, later hydrolysis stages (day 7)",greater than 1
same,dioxy compound effect(no GH61) (Equation 3),"[1]; AVICEL 14 mg cellulose per ml, dioxy compound 5 mM, day 1",greater than 1
"COc1cccc(OC)c1O [2,6-dimethoxyphenol]",hydrolysis of AVICEL in the presence of both T. aurantiacus GH61A polypeptide and dioxy compound relative to inhibition by the dioxy compound,[1],overall enhancement of cellulolysis
"O=C(O)c1ccc(O)c(O)c1 [3,4-dihydroxybenzoic acid]",conversion (hydrolysis) of the microcrystalline cellulose,[2],no significant hydrolysis
"CCOCC(O)CO (centres unmarked) [3-ethoxy-1,2-propanediol, 3-ethyoxy-1,2-propanediol]",dioxy compound effect(no GH61),[1]; 3 days,1.11±0.0167
same,dioxy compound effect(no GH61),[1]; 7 days,1.20±0.0210
"Oc1ccc(Cl)cc1O [4-chloro-1,2-benzenediol]",dioxy compound effect(+GH61) (Equation 4),[1]; [6],increased
same,dioxy compound effect(+GH61) (Equation 4),[1]; [7],less than 1
same,dioxy compound effect(+GH61) (Equation 4),[1]; [8],less than 1
same,"dioxy compound effect(no GH61) (Equation 3), ratio of percent conversion with/without dioxy compound",[1]; [9],less than 1
same,"GH61 effect (Equation 5), ratio of percent conversion with/without GH61 polypeptide","[1]; AVICEL, T. reesei cellulase composition, dioxy compound 5 mM, day 1 (Example 24)",greater than 1
same,GH61 effect (Equation 5),[1]; [10],greater than 1
"O=[N+]([O-])c1ccc(O)c(O)c1 [4-nitro-1,2-benzenediol]",dioxy compound effect(+GH61) (Equation 4),[1]; [6],less than 1
same,dioxy compound effect(+GH61) (Equation 4),[1]; [7],less than 1
same,dioxy compound effect(+GH61) (Equation 4),[1]; [8],less than 1
same,"dioxy compound effect(no GH61) (Equation 3), ratio of percent conversion with/without dioxy compound",[1]; [9],less than 1
same,GH61 effect (Equation 5),[1]; [10],greater than 1
same,GH61 effect (Equation 5),"[1]; AVICEL, T. reesei cellulase composition, dioxy compound 5 mM, day 8 (Example 24)",greater than 1
"O=C1C=CC(=Nc2cc(Cl)c(O)c(Cl)c2)C=C1 [DCPIP, dichlorophenolindophenol]",conversion (hydrolysis) of the microcrystalline cellulose,[2],no significant hydrolysis
O=C(O)/C=C/c1ccc(O)c(O)c1 [caffeic acid],conversion of microcrystalline cellulose,[3]; [11],4.4±0.1%
same,conversion of microcrystalline cellulose,[3]; [12],7.0±0.1%
same,change in conversion of microcrystalline cellulose compared to the enzymes in the absence of the dioxy compound,[4],no significant change
same,conversion (hydrolysis) of the microcrystalline cellulose,[2],no significant hydrolysis
COC(=O)c1ccc(O)cc1 [methyl-4-hydroxybenzoate],hydrolysis of AVICEL in the presence of both T. aurantiacus GH61A polypeptide and dioxy compound relative to inhibition by the dioxy compound,[1],overall enhancement of cellulolysis
"COc1cc(C=CC(=O)O)cc(OC)c1O [sinapinic acid, 3,5 dimethoxy-4-hydroxy cinnamic acid]",conversion of microcrystalline cellulose,[3]; [11],6.3±0.1%
same,conversion of microcrystalline cellulose,[3]; [12],9.2±0.1%
same,change in conversion of microcrystalline cellulose compared to the enzymes in the absence of the dioxy compound,[4],no significant change
O=C(OC[C@H]1O[C@@H](OC(=O)c2cc(O)c(O)c(OC(=O)c3cc(O)c(O)c(O)c3)c2)[C@H](OC(=O)c2cc(O)c(O)c(OC(=O)c3cc(O)c(O)c(O)c3)c2)[C@@H](OC(=O)c2cc(O)c(O)c(OC(=O)c3cc(O)c(O)c(O)c3)c2)[C@@H]1OC(=O)c1cc(O)c(O)c(OC(=O)c2cc(O)c(O)c(O)c2)c1)c1cc(O)c(O)c(OC(=O)c2cc(O)c(O)c(O)c2)c1 [tannic acid],conversion of microcrystalline cellulose,[3]; [11],5.7±0.1%
same,conversion of microcrystalline cellulose,[3]; [12],6.0±0.2%
same,change in conversion of microcrystalline cellulose compared to the enzymes in the absence of the dioxy compound,[4],no significant change
"O=C(O)C(O)C(O)C(=O)O (centres unmarked) [tartrate, tartaric acid]",dioxy compound effect(no GH61),[1]; 3 days,0.984±0.00843
same,dioxy compound effect(no GH61),[1]; 7 days,1.02±0.0573
B1,conversion of microcrystalline cellulose,"[3]; T. terrestris GH61E polypeptide (10 mg per g cellulose) + endoglucanase II + beta-glucosidase (5 mg/g each), no dioxy compound, 50° C.",2.8±0.1%
same,conversion of microcrystalline cellulose,"[3]; T. terrestris GH61E polypeptide (10 mg per g cellulose) + endoglucanase II + beta-glucosidase (5 mg/g each), no dioxy compound, 60° C.",3.1±0.1%
